Laboratory results taken from US6774110B2, “Orally available peptidic thrombin inhibitors” (LG Life Sciences Ltd., priority 2001, dated 2004).
Counter-ions that a name gives are not always drawn.

Biological target: T1, thrombin (Homo sapiens, UniProt P00734)
T1 construct: Thrombin used in this test was prepared from human plasma; from tissue; host or cells: human plasma
Test: In vitro enzyme assay for determining thrombin inhibition constants (Chromozym TH substrate)
Format: biochemical
Details: thrombin prepared from human plasma; Dixon plot; pH 7.8; read-out: Inhibition constant Ki
Procedure: The activity of thrombin was measured spectrophotometrically using tosyl-Gly-Pro-Arg-p-nitroanilide acetate (Chromozym TH, Boehringer Mannheim) as a substrate. […] Each compound was dissolved in DMSO to make a 1 mM stock solution and dilutions were made thereof with assay buffer (0.1 M TrisHCl, 0.15 M NaCl, 0.1% polyethylene glycol 8000, pH 7.8). Different concentrations of inhibitor were mixed with 0.3 NIH units of thrombin in 0.8 mL of the buffer. The mixture was incubated for 10 min at room temperature before adding 0.2 mL of the substrate to a final concentration of 20 μM. […] A graph for the reciprocal value of initial velocity to the inhibitor concentration was derived from progress curves by fitting the data using a linear regression program. […]

| Compound | Ki [nM] |
| --- | --- |
| COP(=O)(N[C@@H](C(=O)N1CCC[C@H]1C(=O)NCc1ccc(C(=N)N)cc1)C(c1ccccc1)c1ccccc1)OC [Compound 43, N-dimethoxyphosphoryl-D-diphenylalanyl-L-prolyl-[(4-amidinophenyl)methyl]amide.TFA] | 0.011 |
| CP(C)(=O)N[C@@H](C(=O)N1CCC[C@H]1C(=O)NCc1ccc(C(=N)N)cc1)C(c1ccccc1)c1ccccc1 [Compound 44, N-dimethylphosphoryl-D-diphenylalanyl-L-prolyl-[(4-amidinophenyl)methyl]amide.TFA] | 0.15 |
| N=C(N)c1ccc(CNC(=O)[C@@H]2CCCN2C(=O)[C@H](NCC(=O)O)C(c2ccccc2)c2ccccc2)cc1 [Compound 45, N-carboxymethyl-D-diphenylalanyl-L-prolyl-[(4-amidinophenyl)methyl]amide.2TFA] | 0.02 |
| N=C(N)c1ccc(CNC(=O)[C@@H]2CCCN2C(=O)[C@H](NCC(=O)O)C(c2ccccc2)c2ccccc2)cn1 [Compound 46, N-carboxymethyl-D-diphenylalanyl-L-prolyl-(6-amidino-3-picolyl)amide.2TFA] | 0.03 |
| N=C(N)c1ccc(CNC(=O)[C@@H]2CCCN2C(=O)[C@H](NCC(=O)O)C(c2ccccc2)c2ccccc2)cc1F [Compound 47, N-carboxymethyl-D-diphenylalanyl-L-prolyl-[(4-amidino-3-fluorophenyl)methyl]amide.2TFA] | 0.05 |
| Cc1cc(CNC(=O)[C@@H]2CCCN2C(=O)[C@H](NCC(=O)O)C(c2ccccc2)c2ccccc2)ccc1C(=N)N [Compound 48, N-carboxymethyl-D-diphenylalanyl-L-prolyl-[(4-amidino-3-methylphenyl)methyl]amide.2TFA] | 0.22 |
| CCOC(=O)CN[C@@H](C(=O)N1CCC[C@H]1C(=O)NCc1ccc(C(N)=NO)cc1)C(c1ccccc1)c1ccccc1 [Compound 49, N-(ethoxycarbonyl)methyl-D-diphenylalanyl-L-prolyl-[(4-hydroxyamidinophenyl)methyl]amide.TFA] | 15.7 |

Next, values leading:

| Ki [nM] | Compound |
| --- | --- |
| 0.01 | N=C(N)c1ccc(CNC(=O)[C@@H]2CCCN2C(=O)[C@H](NS(=O)(=O)Cc2ccccc2)C(c2ccccc2)c2ccccc2)cc1 [Compound 41, N-benzylsulfonyl-D-diphenylalanyl-L-prolyl-[(4-amidinophenyl)methyl]amide.TFA] |
| 0.002 | CN(C)S(=O)(=O)N[C@@H](C(=O)N1CCC[C@H]1C(=O)NCc1ccc(C(=N)N)cc1)C(c1ccccc1)c1ccccc1 [Compound 42, N-dimethylaminosulfonyl-D-diphenylalanyl-L-prolyl-[(4-amidinophenyl)methyl]amide.TFA] |
| 0.045 | N=C(N)c1ccc(CNC(=O)[C@@H]2CCCN2C(=O)[C@H](Nc2ccccc2)C(c2ccccc2)c2ccccc2)cc1 [Compound 50, N-phenyl-D-diphenylalanyl-L-prolyl-[(4-amidinophenyl)methyl]amide.TFA] |
